According to patent publication US12612409B2, “Pyrrolopyrimidines as CFTR potentiators” (Cystic Fibrosis Foundation, priority 2016, dated 2026):

Columns and labels:
[1] = molecular target: T1, recombinant F508del V470 CFTR in Fischer rat thyroid (FRT) cells (Homo sapiens, UniProt P13569, DEL508-508); assay: FRT ion flux assay of F508del CFTR potentiation; type: cell-based; settings: FRT cells expressing F508del V470 CFTR, forskolin 20 uM, 27° C. pre-incubation
T1 construct: expressed in transfected cells
Procedure: FRT Ion Flux Assay of F508del CFTR Potentiation
Fischer rat thyroid (FRT) cell lines stably expressing recombinant F508del V470 CFTR and halide-sensitive yellow fluorescent protein (Pedemonte et al., J. Clin. Invest. 115(9) 2564-71 (2005)) were seeded at 25,000 cells/well in 50 uL/well of culture medium into black-walled, clear bottom tissue-culture-treated 384-well plates (Corning, cat. no. 3712). After one day, the cells were pre-incubated at 27° C./5% CO2 for 16-24 hours. The cells were then washed with dPBS and treated with forskolin (20 uM) and test compound for 30 mi by addition of 20 uL of compound dilution buffer (dPBS containing forskolin and test compound). Plates were loaded into FLIPR384 fluorescence imaging plate reader (Molecular Devices). After an initial fluorescence reading, iodide buffer (25 uL) (composition (in mM): 137 NaI, 1.5 K2PO4, 8.1 NaH2PO4, 2.7 KCl, 0.5 MgCl2, 1 CaCl2) was added and a second fluorescence reading was made after approximately 21 seconds. Data treatment involved division of the second fluorescence reading by the initial fluorescence reading, then scaling of the resulting normalized endpoint fluorescence with respect to the responses for DMSO (0%) and a positive control potentiator (100%).

[2] = molecular target: T2, CFTR in F508del/F508del primary CF hBE cells (Homo sapiens, UniProt P13569, DEL508-508); assay: Ussing chamber electrophysiology assay of CFTR potentiation in F508del/F508del CF bronchial epithelial cells (27° C.); type: cell-based
T2 construct: Primary cystic fibrosis human bronchial epithelial (CF hBE) cells were expanded and cultured; endogenous in cells; host or cells: primary CF human bronchial epithelial cells, genotype F508del/F508del
From the text: • SHELXTL, Version 5.1, Bruker AXS, 1997. • PLATON, A. L. Spek, J. Appl. Cryst. 2003, 36, 7-13. • MERCURY, C. F. Macrae, P. R. Edington, P. McCabe, E. Pidcock, G. P. Shields, R. Taylor, M. Towler and J. van de Streek, J. Appl. Cryst. 39, 453-457, 2006. • OLEX2, Dolomanov, O. V.; Bourhis, L. J.; Gildea, R. J.; Howard, J. A. K.; Puschmann, H., (2009). J. Appl. Cryst., 42, 339-341. • R. W. W. Hooft et al. J. Appl. Cryst. (2008). 41. 96-103. • H. D. Flack, Acta Cryst. 1983, A39, 867-881. Using Chamber Electrophysiology Assay of CFTR Potentiation in CF Bronchial Epithelial Cells
Primary cystic fibrosis human bronchial epithelial (CF hBE) cells were expanded and cultured according to published methods (Neuberger et al., Ch. 4 of Cystic Fibrosis, Methods in Molecular Biology vol. 741, pp. 39-54 (2011)). Well-differentiated cells (>30 days at air/liquid interface) on Snapwell filters (Corning Costar, cat. no. 3801) were mounted in Ussing chambers (Physiologic Instruments, Inc., San Diego, CA). […] HEPES buffered physiological saline (composition (in mM): 137 NaCl, 4 KCl, 1 MgCl2, 1.8 CaCl2), 10 HEPES Na) was used in both apical and basolateral chambers. Chambers were bubbled with air to promote mixing and the voltage was clamped to zero. Amiloride (30 uM), forskolin (10 uM), test compound (4 increasing concentrations), and CFTRinh-172 (20 uM) were added sequentially with 20-25 minutes between additions. Short-circuit currents were acquired and analyzed using LabScribe2. Test compound responses were scaled relative to responses for DMSO (0%) and the maximal response of a positive control potentiator (100%).

T1 sequence (P13569 with tags, fused parts or gaps DEL508-508): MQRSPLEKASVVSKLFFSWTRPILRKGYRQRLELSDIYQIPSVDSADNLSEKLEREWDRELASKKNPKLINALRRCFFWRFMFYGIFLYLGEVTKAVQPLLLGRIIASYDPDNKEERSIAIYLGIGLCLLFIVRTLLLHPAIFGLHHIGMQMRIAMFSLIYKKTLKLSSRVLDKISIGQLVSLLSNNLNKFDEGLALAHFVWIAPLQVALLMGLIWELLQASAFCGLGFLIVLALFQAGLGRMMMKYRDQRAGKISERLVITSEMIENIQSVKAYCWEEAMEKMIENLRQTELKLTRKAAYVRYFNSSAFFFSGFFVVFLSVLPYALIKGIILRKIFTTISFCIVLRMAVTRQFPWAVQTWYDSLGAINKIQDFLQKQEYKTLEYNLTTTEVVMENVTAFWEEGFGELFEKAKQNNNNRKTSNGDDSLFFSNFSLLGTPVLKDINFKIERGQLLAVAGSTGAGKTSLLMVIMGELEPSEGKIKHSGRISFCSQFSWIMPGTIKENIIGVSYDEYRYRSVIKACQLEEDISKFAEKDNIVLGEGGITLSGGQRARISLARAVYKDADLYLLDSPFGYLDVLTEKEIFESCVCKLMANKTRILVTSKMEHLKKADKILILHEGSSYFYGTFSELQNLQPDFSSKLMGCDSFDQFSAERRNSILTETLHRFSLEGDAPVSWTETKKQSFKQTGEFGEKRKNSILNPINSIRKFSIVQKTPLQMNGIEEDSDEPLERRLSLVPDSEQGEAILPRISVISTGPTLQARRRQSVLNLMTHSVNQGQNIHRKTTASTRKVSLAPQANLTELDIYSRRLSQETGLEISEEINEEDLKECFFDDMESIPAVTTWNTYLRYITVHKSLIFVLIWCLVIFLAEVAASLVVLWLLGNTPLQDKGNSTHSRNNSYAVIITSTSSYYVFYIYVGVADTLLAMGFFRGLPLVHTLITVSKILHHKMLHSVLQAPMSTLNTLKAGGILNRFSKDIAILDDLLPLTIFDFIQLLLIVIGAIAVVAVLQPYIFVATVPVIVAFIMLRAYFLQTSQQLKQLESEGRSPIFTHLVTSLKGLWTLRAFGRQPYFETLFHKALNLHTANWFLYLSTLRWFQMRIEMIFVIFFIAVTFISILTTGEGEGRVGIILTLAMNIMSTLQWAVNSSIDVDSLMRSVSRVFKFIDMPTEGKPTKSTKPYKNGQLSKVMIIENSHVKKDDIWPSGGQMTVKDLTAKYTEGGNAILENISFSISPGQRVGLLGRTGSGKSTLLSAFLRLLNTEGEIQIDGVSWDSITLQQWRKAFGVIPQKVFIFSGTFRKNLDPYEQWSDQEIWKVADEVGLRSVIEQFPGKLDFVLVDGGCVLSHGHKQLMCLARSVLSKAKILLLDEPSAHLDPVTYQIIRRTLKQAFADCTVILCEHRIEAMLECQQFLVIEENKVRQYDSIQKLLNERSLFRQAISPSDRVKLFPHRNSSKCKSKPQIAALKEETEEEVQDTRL
T2 sequence (P13569 with tags, fused parts or gaps DEL508-508): as above

| Compound | EC50 [1] [nM] | EC50 [2] [nM] |
| --- | --- | --- |
| CC(c1cn(-c2ccccc2F)nn1)n1cc(-c2ccc(OC3CC3)cc2)c2c(N)ncnc21 (single isomer, unassigned; enantiomer 2) [Example 118, (−) 5-[4-(Cyclopropyloxy)phenyl]-7-{1-[1-(2-fluorophenyl)-1H-1,2,3-triazol-4-yl]ethyl}-7H-pyrrolo[2,3-d]pyrimidin-4-amine, enantiomer 2] | 378 | 162 |
| COc1cccc(-c2cc(C(C)n3cc(-c4ccc(Cl)cc4)c4c(N)ncnc43)on2)c1 (stereo not shown) [Example 261, 5-(4-Chlorophenyl)-7-{1-[3-(3-methoxyphenyl)-1,2-oxazol-5-yl]ethyl}-7H-pyrrolo[2,3-d]pyrimidin-4-amine] | 169 | 232 |
| CCC(c1cn(-c2cccc(F)c2F)nn1)n1cc(-c2cnc(C(F)(F)F)nc2)c2c(N)ncnc21 (single isomer, unassigned) [Example 187, 7-{1-[1-(2,3-Difluorophenyl)-1H-1,2,3-triazol-4-yl]propyl}-5-[2-(trifluoromethyl)pyrimidin-5-yl]-7H-pyrrolo[2,3-d]pyrimidin-4-amine] | 13.2 | 13 |
| CCC(c1cn(-c2ccc(F)cc2F)nn1)n1c(C#N)c(-c2cnc(C(F)(F)F)nc2)c2c(N)ncnc21 (single isomer, unassigned) [Example 17, 4-Amino-7-{1-[1-(2,4-difluorophenyl)-1H-1,2,3-triazol-4-yl]propyl}-5-[2-(trifluoromethyl)pyrimidin-5-yl]-7H-pyrrolo[2,3-d] pyrimidin-6-carbonitrile] | 45.3 | 49.5 |
| CC(c1cc(-c2ccccc2F)no1)n1cc(-c2ccc3nonc3c2)c2c(N)ncnc21 (stereo not shown) [Example 104, 5-(2,1,3-Benzoxadiazol-5-yl)-7-{1-[3-(2-fluorophenyl)-1,2-oxazol-5-yl]ethyl}-7H-pyrrolo[2,3-d]pyrimidin-4-amine] | 331 | – |
| Cc1c(C(C)n2cc(-c3cnc(C(F)(F)F)nc3)c3c(N)ncnc32)nnn1-c1ccccc1F (single isomer, unassigned; enantiomer 2) [Example 180, 7-{1-[1-(2-Fluorophenyl)-5-methyl-1H-1,2,3-triazol-4-yl]ethyl}-5-[2-(trifluoromethyl)pyrimidin-5-yl]-7H-pyrrolo[2,3-d]pyrimidin-4-amine, enantiomer 2] | 1920 | – |
| Nc1ncnc2c1c(C1CN(C(=O)C3CC3)C1)cn2Cc1cn(-c2ccccc2F)nn1 [Example 292, [3-(4-Amino-7-{[1-(2-fluorophenyl)-1H-1,2,3-triazol-4-yl]methyl}-7H-pyrrolo[2,3-d]pyrimidin-5-yl)azetidin-1-yl](cyclopropyl) methanone] | 3210 | – |
| CC(c1cn(-c2ccc(F)cc2F)nn1)n1cc(-c2cnc(C(F)(F)F)nc2)c2c(N)ncnc21 (single isomer, unassigned; enantiomer 2) [Example 124, 7-{1-[1-(2,4-Difluorophenyl)-1H-1,2,3-triazol-4-yl]ethyl}-5-[2-(trifluoromethyl)pyrimidin-5-yl]-7H-pyrrolo[2,3-d]pyrimidin-4-amine, enantiomer 2] | 1240 | – |
| CC(c1cn(-c2ccccc2F)nn1)n1cc(-c2cc[nH]n2)c2c(N)ncnc21 (single isomer, unassigned; enantiomer 2) [Example 122, 7-{1-[1-(2-Fluorophenyl)-1H-1,2,3-triazol-4-yl]ethyl}-5-(1H-pyrazol-3-yl)-7H-pyrrolo[2,3-d]pyrimidin-4-amine, enantiomer 2] | 1050 | – |
| COc1cc2c(cc1-c1cn(C(C)c3cn(-c4ccccc4F)nn3)c3ncnc(N)c13)CCCC2 (stereo not shown) [Example 93, 7-{1-[1-(2-Fluorophenyl)-1H-1,2,3-triazol-4-yl]ethyl}-5-(3-methoxy-5,6,7,8-tetrahydronaphthalen-2-yl)-7H-pyrrolo[2,3-d]pyrimidin-4-amine] | 691 | – |

Second part, the molecule after the results:

| EC50 [1] [nM] | EC50 [2] [nM] | Compound |
| --- | --- | --- |
| 230 | 57.6 | CCC(c1cn(-c2ccc(F)c(F)c2)nn1)n1cc(-c2cc(F)cnc2OC)c2c(N)ncnc21 (single isomer, unassigned; enantiomer 2) [Example 156, 7-{1-[1-(3,4-Difluorophenyl)-1H-1,2,3-triazol-4-yl]propyl}-5-(5-fluoro-2-methoxypyridin-3-yl)-7H-pyrrolo[2,3-d]pyrimidin-4-amine, enantiomer 2] |
| 43.8 | 117 | COc1ncccc1-c1cn(Cc2cnc(-c3ccccc3F)[nH]2)c2ncnc(N)c12 [Example 193, 7-{[2-(2-Fluorophenyl)-1H-imidazol-5-yl]methyl}-5-(2-methoxypyridin-3-yl)-7H-pyrrolo[2,3-d]pyrimidin-4-amine] |
| 54.6 | 142 | CC(c1cnc(-c2ccccc2F)[nH]1)n1cc(-c2cnc(N(C)C)nc2)c2c(N)ncnc21 (stereo not shown) [Example 67, 5-[2-(Dimethylamino)pyrimidin-5-yl]-7-{1-[2-(2-fluorophenyl)-1H-imidazol-5-yl]ethyl}-7H-pyrrolo[2,3-d]pyrimidin-4-amine] |
| 34.1 | 35.5 | CCC(c1cn(-c2ccc(F)c(F)c2)nn1)n1cc(-c2cncnc2OC)c2c(N)ncnc21 (single isomer, unassigned; enantiomer 1) [Example 151, (+) 7-{1-[1-(3,4-Difluorophenyl)-1H-1,2,3-triazol-4-yl]propyl}-5-(4-methoxypyrimidin-5-yl)-7H-pyrrolo[2,3-d]pyrimidin-4-amine, enantiomer 1] |
| 545 | 372 | CCC(c1cn(-c2cccc(F)c2F)nn1)n1cc(-c2cncnc2OC)c2c(N)ncnc21 (single isomer, unassigned; enantiomer 1) [Example 305, (−) 7-{1-[1-(2,3-Difluorophenyl)-1H-1,2,3-triazol-4-yl]propyl}-5-(4-methoxypyrimidin-5-yl)-7H-pyrrolo[2,3-d]pyrimidin-4-amine, enantiomer 1] |
| 509 | 305 | COc1ncc(-c2cn(C(C)c3cc(-c4ccccc4F)no3)c3ncnc(N)c23)cn1 (single isomer, unassigned; (-)) [Example 183, (−) 7-{1-[3-(2-fluorophenyl)-1,2-oxazol-5-yl]ethyl}-5-(2-methoxypyrimidin-5-yl)-7H-pyrrolo[2,3-d]pyrimidin-4-amine] |
| – | 551 | Nc1ncnc2c1c(-c1ccc(Cl)cc1)cn2Cc1nnc(-c2ccccc2)[nH]1 [Example 284, 5-(4-Chlorophenyl)-7-[(5-phenyl-4H-1,2,4-triazol-3-yl)methyl]-7H-pyrrolo[2,3-d]pyrimidin-4-amine] |
| 4540 | – | Cc1ccc2cc(F)c(-c3cn(C(C)c4cnc(-c5ccccc5F)[nH]4)c4ncnc(N)c34)cc2n1 (stereo not shown) [Example 63, 5-(6-Fluoro-2-methylquinolin-7-yl)-7-{1-[2-(2-fluorophenyl)-1H-imidazol-5-yl]ethyl}-7H-pyrrolo[2,3-d]pyrimidin-4-amine] |
| 42.4 | – | CCC(c1cn(-c2ccc(F)c(F)c2)nn1)n1cc(-c2cncnc2OC)c2c(N)ncnc21 (stereo not shown) [Example 245, 7-{1-[1-(3,4-Difluorophenyl)-1H-1,2,3-triazol-4-yl]propyl}-5-[4-methoxypyrimidin-5-yl]-7H-pyrrolo[2,3-d] pyrimidin-4-amine] |
| 2380 | – | Cn1cc2cc(-c3cn(Cc4cn(-c5ccccc5F)nn4)c4ncnc(N)c34)ccc2n1 [Example 76, 7-{[1-(2-Fluorophenyl)-1H-1,2,3-triazol-4-yl]methyl}-5-(2-methyl-2H-indazol-5-yl)-7H-pyrrolo[2,3-d]pyrimidin-4-amine] |
| 1420 | – | CC(c1cnc(-c2ccccc2F)[nH]1)n1cc(-c2ccc3c(c2)OCC(=O)N3)c2c(N)ncnc21 (stereo not shown) [Example 65, 7-(4-Amino-7-{1-[2-(2-fluorophenyl)-1H-imidazol-5-yl]ethyl}-7H-pyrrolo[2,3-d]pyrimidin-5-yl)-2H-1,4-benzoxazin-3(4H)-one] |
